Test system: multiple sclerosis patients
Test: Adverse events and tolerability in the same study
Type: in vivo, human
From the text: We selected 9 women and 7 men (aged 30-66 years) with documented progression during the 24 months before inclusion, from a natural history study. Kurtzke's EDSS scores were between 3.0 (inclusive) and 7.5 (inclusive). All adverse events were documented; safety lab consisted of serum transaminases (monthly for 3 months and every 3 months thereafter) and hematology (CBC and differential every 6 months) after the start of treatment. The study was approved by the hospital ethics committee, and all patients gave informed consent.

With `Nc1nc2ccc(OC(F)(F)F)cc2s1` [riluzole, (6-trifluoromethoxy)-2-benzothiazolamine)] the “Medically severe adverse effects” value (14 patients who took medication for over three months) was “not observed”, the “Patients who needed intermittent reduction in dosage of study drug” value (of 16 patients, riluzole 2×50 mg daily) was “Five” and the “Patients who discontinued treatment because of side effects” value (of 16 patients, headache in one, increase in spasticity in the other) was “Two”.

From patent US7342033B2 (Vereniging Voor Christelijk Wetenschappelijk Onderwijs, priority 1999, dated 2008)
